From patent publication EP4755886A1 (Chengdu Chipscreen Pharmaceutical Ltd., priority 2023, dated 2025)
Read-outs that look alike come from different tables or passages of the source.

Experiments:
PK experiment in rats = format: in vivo; conditions: rat; SD male rats, PO 10 mg/kg, vehicle 0.5% MC/0.2% Tween 80, plasma
Procedure: The samples were analyzed by LC-MS/MS. […] Table 6. Pharmacokinetic parameters for rats

[1] = Human liver microsome stability; format: in vitro ADME; conditions: pH 7.4; human liver microsomes 0.5 mg/mL, compound 1 µM, NADPH 1 mM, 37 °C
Procedure: (§1) Experimental materials: human liver microsomes (purchased from BIOIVT);
(§2) PBS: 0.1 M KH2PO4 and K2HPO4 buffers, pH 7.4.
MgCl2: a certain amount of MgCl2 was weighed out and prepared into a 16 mM MgCl2 solution with PBS.
NADPH (Chinese name: reduced nicotinamide adenine dinucleotide phosphate, purchased from Sigma, Cat. No.: 481973-500 mg): a certain amount of NADPH was weighed out and a 4 mM solution of NADPH was prepared with a 16 mM MgCl2 solution, and the final incubation concentration was 1 mM.
Compounds: 4 µM solutions of the test compounds and positive compounds were prepared with PBS, and the final incubation concentration was 1 µM.
Liver microsomes (purchased from BIOIVT, Cat. No.: X008070): the liver microsomes were diluted to […] with PBS, and the final incubation concentration was 0.5 mg/mL.
The prepared test compound or positive compound was added to a test tube, and then the prepared NADPH was added. The mixture was mixed well. The mixture was pre-incubated in a thermostat incubator at 220 rpm at 37 °C for 5 min, and the prepared liver microsomes were added to start the reaction. All steps were performed in replicate wells. At 0 min, 15 min, 30 min, 45 min, and 60 min, a certain volume of glacial acetonitrile solution containing an internal standard was added to the corresponding tube to precipitate the protein. The mixture was vortexed for 5 min with shaking, and then centrifuged at 4000 rpm for 10 min. […] The samples were analyzed by LC-MS/MS.
The concentrations (peak area ratios) of the example compounds were determined by LC-MS/MS. Rate constants were obtained by plotting "Ln (residual amount of compound %)" versus "incubation time" in Excel, thereby calculating the half-lives and intrinsic clearances of the drugs and providing a basis for the prediction of the in-vivo clearance.
[formula] CLH = CLint × fu × Qh /(CLint×fu+Qh) [formula]
Stability in human liver microsomes

PK experiment in mice = conditions: mouse, plasma, po, 10 mg/kg
Procedure: Experimental materials: the experimental animals were healthy adult female BALB/c mice (provided by Sichuan Vital River Laboratory Animal Technology Co., Ltd.).
Administration mode and sample collection in mice: BALB/c female mice received oral intragastrical administration (10 mg/kg, vehicle: 0.5% methylcellulose/0.2% Tween 80), and 60 µL of whole blood from the venous plexus of the fundus of the mice at different time points was collected at 0.25 h, 0.5 h, 1 h, 2 h, 4 h, 6 h, 8 h, and 24 h after administration and centrifuged at 4000 rpm for 6 min to collect plasma.
10 µL of mouse plasma sample was added to 190 µL of acetonitrile solution containing an internal standard to precipitate protein. The mixture was vortexed for 10 min and centrifuged at 4000 rpm for 10 min. The supernatant was collected and added to a 96-well plate. The samples were analyzed by LC-MS/MS. The drug concentrations in the plasma of mice at different time points after intragastric administration of the example compounds were measured by an LC-MS/MS method, and the related pharmacokinetic parameters were calculated, such that the pharmacokinetic behavior of the compounds in the mice was studied, and the pharmacokinetic characteristics were evaluated.

CYP450 enzyme 3A4 = target: T1, CYP450 enzyme 3A4 (Homo sapiens, UniProt P08684); assay: CYP inhibition test in human liver microsomes; format: in vitro ADME; conditions: human liver microsomes 0.1 mg/mL
T1 construct: Liver microsomes (purchased from BIOIVT, Cat. No.: X008070); tissue BIOIVT X008070; host or cells: human liver microsomes
T1 sequence (P08684 whole entry): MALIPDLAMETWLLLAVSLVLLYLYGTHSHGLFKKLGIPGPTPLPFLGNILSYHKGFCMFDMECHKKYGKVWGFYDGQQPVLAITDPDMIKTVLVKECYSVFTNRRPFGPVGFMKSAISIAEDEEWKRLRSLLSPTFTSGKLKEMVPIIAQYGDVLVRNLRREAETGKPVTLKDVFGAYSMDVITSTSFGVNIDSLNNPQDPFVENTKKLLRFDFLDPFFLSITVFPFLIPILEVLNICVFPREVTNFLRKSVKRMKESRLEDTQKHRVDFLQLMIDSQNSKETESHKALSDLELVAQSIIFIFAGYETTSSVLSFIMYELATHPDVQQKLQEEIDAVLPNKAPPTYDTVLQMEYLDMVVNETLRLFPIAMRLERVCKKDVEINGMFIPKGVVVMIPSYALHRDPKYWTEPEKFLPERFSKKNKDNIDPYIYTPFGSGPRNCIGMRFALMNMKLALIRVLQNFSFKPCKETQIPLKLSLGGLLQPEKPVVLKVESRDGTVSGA
Procedure: as §1, §2
MgCl2: a certain amount of MgCl2 was weighed out and prepared into a 20 mM MgCl2 solution with PBS.
NADPH (Chinese name: reduced nicotinamide adenine dinucleotide phosphate, purchased from Sigma, Cat. No.: 481973-500 mg): a certain amount of NADPH was weighed out and a 5 mM solution of NADPH was prepared with a 20 mM MgCl2 solution, and the final incubation concentration was 1 mM.
Compounds: 3 mM, 1 mM, 0.3 mM, 0.1 mM, 0.03 mM, 0.01 mM, and 0 mM solutions of the test compounds were prepared with a DMSO-methanol (v:v = 1:9) solution, and the final incubation concentrations were 30 µM, 10 µM, 3 µM, 1 µM, 0.3 µM, 0.1 µM, and 0 µM. 30 µM, 10 µM, 3 µM, 1 µM, 0.3 µM, and 0 µM solutions of the positive compound (ketoconazole) were prepared with a DMSO-methanol (v:v = 1:9) solution, and the final incubation concentrations were 0.3 µM, 0.1 µM, 0.03 µM, 0.01 µM, 0.003 µM, and 0 µM.
Substrate working solutions: 200 µM and 15 µM solutions of substrate working solutions (testosterone and midazolam) were prepared with PBS, separately, and the final incubation concentrations were 40 µM and 3 µM.
Liver microsomes (purchased from BIOIVT, Cat. No.: X008070): the liver microsomes were diluted to […] with PBS, and the final incubation concentration was 0.1 mg/mL.
The prepared test compounds or positive compounds were added to a 96-well plate, and then the prepared human liver microsome working solution and substrate working solution were added. The mixture was mixed well. The mixture was pre-incubated in a thermostat incubator at 37 °C for 5 min, and then the prepared NADPH was added to start the reaction. The mixture was incubated for 5 min or 10 min. After the incubation was completed, a pre-cooled acetonitrile solution containing an internal standard was added to terminate the reaction. After protein precipitation, the mixture was vortexed for 5 min with shaking and then centrifuged at 4000 rpm for 10 min. The supernatant was collected and added to the 96-well plate. The content (peak concentration ratio) of the metabolites of the substrate was determined by an LC-MS/MS method. The residual activity and the half maximal inhibitory concentration (IC50) of the enzyme were calculated based on the detected content.
Percentage of remaining enzyme activity: The activity of each subtype of CYP450 enzyme was expressed as the amount of metabolite produced, and the percentage of remaining enzyme activity was calculated as follows: [formula]
The concentrations of the test substances and the corresponding residual activity percentages were fitted using a nonlinear model of Excel software, and the concentration of the test substances at which 50% inhibition of metabolite production was achieved was the IC50 value.

[2] = substrate midazolam 3 µM, read-out: IC50 3A4-Midazolam
[3] = substrate testosterone 40 µM, read-out: IC50 3A4-Testosterone

Row | SMILES | AUC(0-t) (PK experiment in rats) [µg·h/mL] | Cmax (PK experiment in rats) [µg/mL] | half-life at 1 µM [1] [h] | AUC(0-t) (PK experiment in mice) [µg·h/mL] | Cmax (PK experiment in mice) [µg/mL] | IC50 (CYP450 enzyme 3A4; [2]) [µM] | IC50 (CYP450 enzyme 3A4; [3]) [µM] | AUC(0-t) (PK experiment in mice; female, BALB/c) [µg·h/mL] | Cmax (PK experiment in mice; female, BALB/c) [µg/mL]
1 | CN(C(=O)c1cc2c(cc1F)nc(N)c1cnn(C)c12)[C@@H]1COc2cc(C#Cc3cnn(C)c3)ccc21 [Compound 5A, (S)-4-amino-7-fluoro-N,1-dimethyl-N-(6-((1-methyl-1H-pyrazol-4-yl)ethynyl)-2,3-dihydrobenzofuran-3-yl)-1H-pyrazolo[4,3-c]quinoline-8-carboxamide] | 15.6 ± 4.64 | 2.18 ± 0.777 | 1.11 | 15.7 ± 1.6 | 2.22 ± 0.23 | > 30 | > 30 | – | –
2 | CN(C(=O)c1cc2c3c(c(N)nc2cc1Cl)COC3)[C@@H]1COc2cc(C#Cc3cnn(C4CC4)c3)ccc21 [Compound 43A, (S)-4-amino-7-chloro-N-(6-((1-cyclopropyl-1H-pyrazol-4-yl)ethynyl)-2,3-dihydrobenzofuran-3-yl)-N-methyl-1,3-dihydrofuro[3,4-c]quinoline-8-carboxamide] | 9.65 ± 1.17 | 1.22 ± 0.417 | 2.03 | – | – | > 30 | > 30 | 32.3 ± 3.34 | 3.42 ± 0.913
3 | Cc1nn(C)cc1C#Cc1ccc2c(c1)OC[C@H]2N(C)C(=O)c1cc2c3c(c(N)nc2cc1Cl)COC3 [Compound 50A, (S)-4-amino-7-chloro-N-(6-((1,3-dimethyl-1H-pyrazol-4-yl)ethynyl)-2,3-dihydrobenzofuran-3-yl)-N-methyl-1,3-dihydrofuro[3,4-c]quinoline-8-carboxamide] | – | – | 0.832 | – | – | > 30 | > 30 | – | –
